Assay results as given in article PMC12169608, “Peptidomimetic Phenoxymethyl Ketone Warheads as Potent Dual-Mode Inhibitors against SARS-CoV‑2 M^pro and Cathepsin” (Journal of Medicinal Chemistry, 2025).
Converted amounts (≈) assume the structure as drawn. Read-outs that look alike come from different tables or passages of the source.

Assays:
in vitro [1] = conditions: mouse, hepatocytes; for hepatocyte CLint at 2 h, 2 µM: CLint (mouse hepatocytes)
in vitro [2] = conditions: mouse, plasma, mouse plasma protein binding
[3] = biological target: mouse cathepsin L (mCTSL) (Mus musculus, UniProt P06797); test: mCTSL biochemical assay
SARS-CoV-2 = test: microbe, parasite or virus in culture; assay type: cell-based; conditions: for EC50: Severe acute respiratory syndrome coronavirus 2, Vero C1008, read-out: SARS-CoV-2 CPE reduction assay pEC50 (converted)
in vitro [4] = conditions: African green monkey
[5] = system: luciferase-expressing VSV (ΔG) pseudotyped with Spike from SARS-CoV-2; test: microbe, parasite or virus in culture; assay type: cell-based; conditions: Vesicular stomatitis virus, Vero C1008, read-out: Entry reporter assay pEC50 (converted)
physchem [6] = conditions: pH 7.4
[7] = biological target: T1, human cathepsin L (hCTSL) (Homo sapiens, UniProt P07711); test: hCTSL biochemical assay; conditions: for hCTSL inhibition, IC50 range in words: biochemical assay
T1 construct: purchased R&D Systems

[8] = 3 h, 2 µM
SARS-CoV-2 M^pro = SARS-CoV-2 M^pro (Severe acute respiratory syndrome coronavirus 2, UniProt P0DTD1); test: biochemical; assay type: biochemical; conditions: for IC50: read-out: M^pro biochemical assay pIC50 (converted); for M^pro inhibition, IC50 range in words: biochemical assay
physchem [9] = conditions: pH 7.4; remark: listed apart in the source
[10] = biological target: human cathepsin B (hCTSB) (Homo sapiens, UniProt P07858); test: hCTSB biochemical assay
[11] = microsomes, 10 µM, pH 7.4
[12] = biological target: mouse cathepsin B (mCTSB) (Mus musculus, UniProt P10605); test: mCTSB biochemical assay; conditions: read-out: pIC50 (mouse CTSB) (converted)
[13] = Mouse hepatocyte stability; conditions: mouse, cryopreserved hepatocytes
[14] = read-out: pIC50 (mouse CTSL) (converted)

Sequence of mouse cathepsin L (mCTSL) (P06797 114-334): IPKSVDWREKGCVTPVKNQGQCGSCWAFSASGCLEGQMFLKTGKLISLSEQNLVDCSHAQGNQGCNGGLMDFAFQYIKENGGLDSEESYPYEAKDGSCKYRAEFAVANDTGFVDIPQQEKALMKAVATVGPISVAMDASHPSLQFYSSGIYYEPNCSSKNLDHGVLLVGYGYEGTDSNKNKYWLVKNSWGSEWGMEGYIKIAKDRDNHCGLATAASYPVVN
T1 sequence (P07711 114-333): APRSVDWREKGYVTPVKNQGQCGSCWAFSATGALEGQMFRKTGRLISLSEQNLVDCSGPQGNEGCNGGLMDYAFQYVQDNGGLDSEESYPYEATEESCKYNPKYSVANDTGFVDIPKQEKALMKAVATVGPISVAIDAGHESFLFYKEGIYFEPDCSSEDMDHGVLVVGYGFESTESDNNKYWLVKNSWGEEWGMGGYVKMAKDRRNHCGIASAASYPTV
Sequence of mouse cathepsin B (mCTSB) (P10605 80-339): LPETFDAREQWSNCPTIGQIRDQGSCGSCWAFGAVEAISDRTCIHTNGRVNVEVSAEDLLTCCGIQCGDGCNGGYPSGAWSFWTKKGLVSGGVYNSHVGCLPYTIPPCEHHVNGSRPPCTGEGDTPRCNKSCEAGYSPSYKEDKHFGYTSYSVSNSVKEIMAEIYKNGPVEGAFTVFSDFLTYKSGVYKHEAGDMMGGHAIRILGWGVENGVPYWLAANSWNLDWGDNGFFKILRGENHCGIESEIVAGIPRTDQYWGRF

COc1cccc2[nH]c(C(=O)N[C@@H](Cc3cccc(F)c3)C(=O)N[C@@H](C[C@@H]3CCNC3=O)C(=O)COc3c(F)c(F)c(F)c(F)c3F)cc12 [compound 16, reference compound]
hepatocyte CLint at 2 h, 2 µM (in vitro [1]): 154 µL/min/1e6 cells
fraction unbound at 3 h, 2 µM (in vitro [2]; fraction bound (Fb)): 0.0067
fraction unbound at 3 h, 2 µM (in vitro [2]; fraction unbound (Fu)): 0.0067
IC50 [3, 14]: 550 nM
EC50 (SARS-CoV-2): 39.8 nM
CC50 (in vitro [4]): > 251 nM
EC50 [5]: 676 nM
logD at 1 h (physchem [6]): 2.95
hCTSL biochemical assay pIC50 [7]: 6.98
mouse plasma protein binding, fraction bound (Fb) [8]: 99.33%
selectivity for M^pro over hCTSL (SARS-CoV-2 M^pro): ~16 fold
IC50 (SARS-CoV-2 M^pro): 6.76 nM
solubility kinetic at 24 h (physchem [9]): 4.09 µM (≈ 2.82 µg/mL)
hCTSB biochemical assay pIC50 [10]: 5.82

COc1cccc2[nH]c(C(=O)N[C@H](Cc3cccc(F)c3)C(=O)N[C@@H](C[C@@H]3CCNC3=O)C(=O)COc3c(F)c(F)c(CO)c(F)c3F)cc12 [compound 2, N-((R)-3-(3-Fluorophenyl)-1-oxo-1-(((S)-3-oxo-1-((S)-2-oxopyrrolidin-3-yl)-4-(2,3,5,6-tetrafluoro-4-(hydroxymethyl)phenoxy)butan-2-yl)amino)propan-2-yl)-4-methoxy-1H-indole-2-carboxamide]
IC50 [3, 14]: 13500 nM
fold less active than 1 in the SARS-CoV-2 CPE reduction assay (SARS-CoV-2): ~169 fold
EC50 (SARS-CoV-2): 21900 nM
CC50 (in vitro [4]): > 74100 nM
EC50 [5]: > 50100 nM
hCTSL biochemical assay pIC50 [7]: 4.67
hCTSL inhibition, IC50 range in words [7]: only micromolar inhibition
M^pro inhibition, IC50 range in words (SARS-CoV-2 M^pro): only micromolar inhibition
IC50 (SARS-CoV-2 M^pro): 4270 nM
hCTSB biochemical assay pIC50 [10]: 5.14

COc1cccc2[nH]c(C(=O)N[C@@H](Cc3cccc(F)c3)C(=O)N[C@@H](C[C@@H]3CC(=O)NC3=O)C(=O)COc3c(F)c(F)c(CO)c(F)c3F)cc12 [compound 6, N-((S)-1-(((S)-1-((R)-2,5-Dioxopyrrolidin-3-yl)-3-oxo-4-(2,3,5,6-tetrafluoro-4-(hydroxymethyl)phenoxy)butan-2-yl)amino)-3-(3-fluorophenyl)-1-oxopropan-2-yl)-4-methoxy-1H-indole-2-carboxamide]
hepatocyte CLint at 2 h, 2 µM (in vitro [1]): 156 µL/min/1e6 cells
IC50 [3, 14]: 97.7 nM
Peak area (%) by LCMS, mouse liver microsomal stability assay of 1 ([11]; 0 h): 0%
Peak area (%) by LCMS, mouse liver microsomal stability assay of 1 ([11]; 5 min): 2.5%
Peak area (%) by LCMS, mouse liver microsomal stability assay of 1 ([11]; 0.25 h): 10.2%
Peak area (%) by LCMS, mouse liver microsomal stability assay of 1 ([11]; 0.5 h): 19.2%
Peak area (%) by LCMS, mouse liver microsomal stability assay of 1 ([11]; 0.75 h): 23.2%
Peak area (%) by LCMS, mouse liver microsomal stability assay of 1 ([11]; 1 h): 24.9%
EC50 (SARS-CoV-2): 1910 nM
CC50 (in vitro [4]): > 25100 nM
logD at 1 h (physchem [6]): 3.08
hCTSL biochemical assay pIC50 [7]: 7.89
IC50 (SARS-CoV-2 M^pro): 6.03 nM
solubility kinetic at 24 h (physchem [9]): 20.9 µM (≈ 15 µg/mL)
hCTSB biochemical assay pIC50 [10]: 6.55

CC(C)(C)[C@H](NC(=O)C(F)(F)F)C(=O)N1C[C@H]2[C@@H]([C@H]1C(=O)N[C@H](C#N)C[C@@H]1CCNC1=O)C2(C)C [Nirmatrelvir, reference compound]
IC50 [3]: > 50100 nM

CCCCCCCC(=O)N[C@@H](Cc1cccc(F)c1)C(=O)N[C@@H](C[C@@H]1CCNC1=O)C(=O)COc1c(F)c(F)c(CO)c(F)c1F [compound 3, N-((S)-3-(3-Fluorophenyl)-1-oxo-1-(((S)-3-oxo-1-((S)-2-oxopyrrolidin-3-yl)-4-(2,3,5,6-tetrafluoro-4-(hydroxymethyl)phenoxy)butan-2-yl)amino)propan-2-yl)octanamide]
hepatocyte CLint at 2 h, 2 µM (in vitro [1]): 206 µL/min/1e6 cells
fraction unbound at 3 h, 2 µM (in vitro [2]; fraction bound (Fb)): 0.0041
fraction unbound at 3 h, 2 µM (in vitro [2]; fraction unbound (Fu)): 0.0041
IC50 [3, 14]: 75.9 nM
EC50 (SARS-CoV-2): 70.8 nM
CC50 (in vitro [4]): > 501 nM
logD at 1 h (physchem [6]): 2.23
hCTSL biochemical assay pIC50 [7]: 7.39
mouse plasma protein binding, fraction bound (Fb) [8]: 99.59%
IC50 (SARS-CoV-2 M^pro): 11.5 nM
hCTSB biochemical assay pIC50 [10]: 7.92

COc1cccc2[nH]c(C(=O)N[C@@H](Cc3cccc(F)c3)C(=O)N[C@@H](C[C@@H]3CC(=O)NC3=O)C(=O)COc3c(F)c(F)c(C(C)(C)O)c(F)c3F)cc12 [compound 11]
hepatocyte CLint at 2 h, 2 µM (in vitro [1]): 124 µL/min/1e6 cells
IC50 [3, 14]: 316 nM
fold less active than 1 in the SARS-CoV-2 CPE reduction assay (SARS-CoV-2): ~6 fold
EC50 (SARS-CoV-2): 759 nM
CC50 (in vitro [4]): > 5010 nM
EC50 [5]: 8910 nM
logD at 1 h (physchem [6]): 2.03
hCTSL biochemical assay pIC50 [7]: 7.95
IC50 (SARS-CoV-2 M^pro): 6.76 nM
solubility kinetic at 24 h (physchem [9]): 0.88 µM (≈ 0.655 µg/mL)
hCTSB biochemical assay pIC50 [10]: 5.88

COc1cccc2[nH]c(C(=O)N[C@@H](Cc3cccc(F)c3)C(=O)N[C@@H](C[C@@H]3CCNC3=O)C(=O)COc3c(F)c(F)cc(F)c3F)cc12 [compound 15, reference compound]
hepatocyte CLint at 2 h, 2 µM (in vitro [1]): 240 µL/min/1e6 cells
fraction unbound at 3 h, 2 µM (in vitro [2]; fraction bound (Fb)): 0.0043
fraction unbound at 3 h, 2 µM (in vitro [2]; fraction unbound (Fu)): 0.0043
IC50 [3, 14]: 603 nM
EC50 (SARS-CoV-2): 39.8 nM
CC50 (in vitro [4]): > 1260 nM
logD at 1 h (physchem [6]): 2.99
hCTSL biochemical assay pIC50 [7]: 7.39
mouse plasma protein binding, fraction bound (Fb) [8]: 99.57%
selectivity for M^pro over hCTSL (SARS-CoV-2 M^pro; biochemical assays): ~7 fold
IC50 (SARS-CoV-2 M^pro): 5.89 nM
solubility kinetic at 24 h (physchem [9]): 1.4 µM (≈ 0.942 µg/mL)
hCTSB biochemical assay pIC50 [10]: 5.46

O=C(N[C@@H](Cc1c[nH]c2ccccc12)C(=O)N[C@@H](C[C@@H]1CCNC1=O)C(=O)COc1c(F)c(F)c(CO)c(F)c1F)c1cc2ccccc2[nH]1 [compound 5, N-((S)-3-(1H-Indol-3-yl)-1-oxo-1-(((S)-3-oxo-1-((S)-2-oxopyrrolidin-3-yl)-4-(2,3,5,6-tetrafluoro-4-(hydroxymethyl)phenoxy)butan-2-yl)amino)propan-2-yl)-1H-indole-2-carboxamide]
hepatocyte CLint at 2 h, 2 µM (in vitro [1]): 182 µL/min/1e6 cells
fraction unbound at 3 h, 2 µM (in vitro [2]; fraction bound (Fb)): 0.0121
fraction unbound at 3 h, 2 µM (in vitro [2]; fraction unbound (Fu)): 0.0121
IC50 [3, 14]: 224 nM
IC50 [12]: 12.3 nM
EC50 (SARS-CoV-2): 1170 nM
CC50 (in vitro [4]): > 10000 nM
EC50 [5]: 5750 nM
logD at 1 h (physchem [6]): 1.5
hCTSL biochemical assay pIC50 [7]: 7.64
mouse plasma protein binding, fraction bound (Fb) [8]: 98.79%
IC50 (SARS-CoV-2 M^pro): 41.7 nM
hCTSB biochemical assay pIC50 [10]: 6.54

COc1cccc2[nH]c(C(=O)N[C@@H](Cc3cccc(F)c3)C(=O)N[C@@H](CCn3cn[nH]c3=O)C(=O)COc3c(F)c(F)c(C(C)(C)O)c(F)c3F)cc12 [compound 13, N-((S)-3-(3-Fluorophenyl)-1-oxo-1-(((S)-2-oxo-5-(5-oxo-1,5-dihydro-4H-1,2,4-triazol-4-yl)-1-(2,3,5,6-tetrafluoro-4-(2-hydroxypropan-2-yl)phenoxy)pentan-3-yl)amino)propan-2-yl)-4-methoxy-1H-indole-2-carboxamide]
hepatocyte CLint at 1 µM (in vitro [1]; CLint (mouse hepatocytes + ritonavir 4:1)): 49.3 µL/min/1e6 cells
hepatocyte CLint at 2 h, 2 µM (in vitro [1]): 78.8 µL/min/1e6 cells
fraction unbound at 3 h, 800 µM (in vitro [2]; fraction bound (Fb)): 0.0031
fraction unbound at 3 h, 800 µM (in vitro [2]; fraction unbound (Fu)): 0.0028
IC50 [3, 14]: 23.4 nM
IC50 [12]: < 6.92 nM
EC50 (SARS-CoV-2): 1660 nM
half-life at 1 µM [13]: 22 min
CC50 (in vitro [4]): > 10000 nM
logD at 1 h (physchem [6]): 2.7
hCTSL biochemical assay pIC50 [7]: 8.71
IC50 (SARS-CoV-2 M^pro): 295 nM
solubility kinetic at 24 h (physchem [9]): 6.78 µM (≈ 5.05 µg/mL)
hCTSB biochemical assay pIC50 [10]: 6.68

CCCCCCCCCCCCCCCC(=O)N[C@@H](Cc1cccc(F)c1)C(=O)N[C@@H](C[C@@H]1CCNC1=O)C(=O)COc1c(F)c(F)c(CO)c(F)c1F [compound 4, N-((S)-3-(3-Fluorophenyl)-1-oxo-1-(((S)-3-oxo-1-((S)-2-oxopyrrolidin-3-yl)-4-(2,3,5,6-tetrafluoro-4-(hydroxymethyl)phenoxy)butan-2-yl)amino)propan-2-yl)palmitamide]
hepatocyte CLint at 2 h, 2 µM (in vitro [1]): 9.31 µL/min/1e6 cells
IC50 [3, 14]: 10500 nM
EC50 (SARS-CoV-2): 2240 nM
CC50 (in vitro [4]): > 25100 nM
EC50 [5]: 5620 nM
logD (physchem [6]): > 3.5
hCTSL biochemical assay pIC50 [7]: < 4.30
hCTSL inhibition, IC50 range in words [7]: only micromolar inhibition
M^pro inhibition, IC50 range in words (SARS-CoV-2 M^pro): only micromolar inhibition
IC50 (SARS-CoV-2 M^pro): 3800 nM
hCTSB biochemical assay pIC50 [10]: 5.11

COc1cccc2[nH]c(C(=O)N[C@@H](Cc3cccc(F)c3)C(=O)N[C@@H](C[C@@H]3CC(=O)NC3=O)C(=O)COc3c(F)c(F)c(C(C)O)c(F)c3F)cc12 (stereo partly drawn) [compound 9, N-((2S)-1-(((2S)-1-((R)-2,5-Dioxopyrrolidin-3-yl)-3-oxo-4-(2,3,5,6-tetrafluoro-4-(1-hydroxyethyl)phenoxy)butan-2-yl)amino)-3-(3-fluorophenyl)-1-oxopropan-2-yl)-4-methoxy-1H-indole-2-carboxamide]
hepatocyte CLint at 2 h, 2 µM (in vitro [1]): 134 µL/min/1e6 cells
IC50 [3, 14]: 158 nM
EC50 (SARS-CoV-2): 1200 nM
CC50 (in vitro [4]): > 10000 nM
logD at 1 h (physchem [6]): 2.6
hCTSL biochemical assay pIC50 [7]: 7.65
IC50 (SARS-CoV-2 M^pro): 5.5 nM
solubility kinetic at 24 h (physchem [9]): 6.33 µM (≈ 4.62 µg/mL)
hCTSB biochemical assay pIC50 [10]: 6.09
